Data taken from patent publication US20250179033A1 (priority 2021, published 2025).
pEC50, pIC50: −log10 of the molar value. Like-named read-outs stand apart in the source and are kept apart here.

Columns and labels:
in vitro = in vitro ADME, human
Protocol: Protein Binding in Plasma: The donor side of dialysis inserts were filled with 200 μL plasma (human and mouse; source BioDuro, San Diego, California, United States of America) containing 5 μM drug and 0.5% of DMSO and the receiver side of the dialysis inserts was filled with 350 μL of PBS buffer (100 mM, pH 7.4). The prepared dialysis apparatus was placed in a shaker (37° C., 100 rpm) for 5 hours. Two tubes with plasma containing 5 μM experimental compound were also prepared for stability test: one tube was placed in the […] for 5 hours and the other tube was placed in shaker ([…], 100 rpm) for 5 hours. Samples were collected from the donor and receiver sides of each dialysis insert. The same volume of blank plasma was added to buffer samples and blank buffer to plasma samples to make sure all sample mixtures contain 50% plasma and 50% buffer. 50 μL of each sample was mixed with 300 μL of acetonitrile containing 25 ng/ml internal standard (propranolol). All samples were vortexed for 1 minute and then centrifuged at 4000 rpm, 4° C. for 15 min. 100 μL of the supernatant was transferred to 0.65 ml tube for LCMS analysis. The amount of compound was determined on the basis of the peak area ratio (compound area to internal standard area) for the two sides, and protein binding is determined using the following equations: % Bound=100×([Area Ratio of Donor]5h*5−[Area Ratio of Receiver]5h)/([Area Ratio of Donor]5h*5). The percentage remaining at 37° C. after 5 hours was calculated on the basis of the amount measured at 0° C. after 5 hours.

Kinetic solubility = type: physicochemical; conditions: Universal Aqueous buffer pH 7.4
Protocol: Kinetic Solubility: 396 μL of Universal Aqueous buffer (pH 7.4) was added to 4 μL of a 50 mM DMSO stock solution of each compound. Wells were agitated for 4 hours at 20° C. and then filtered. The compound was then diluted to serial concentrations with DMSO, followed by serial dilutions with ACN:H2O (1:1) prior to liquid chromatography-mass spectroscopy (LCMS) analysis. The calculated concentration (μM) of soluble compound was determined in reference to a standard curve.

[1] = target: T1, HIV I reverse transcriptase (Human immunodeficiency virus type 1 group M subtype B, UniProt P03366); test: Reverse transcriptase inhibition assay (Roche kit, ELISA); type: biochemical
T1 construct: purchased Roche
Protocol: NNRTI assay methods: Inhibition of HIV I reverse transcriptase was assessed via a kit from Roche (Indianapolis-Marion County, Indiana, United States of America) using the manufacture's protocol (500 μM final reverse transcriptase reaction amount). […] DMSO concentrations were kept the same for all dilutions used within an assay (0.05%). Final compound concentrations ranged from 5000 nM-0.05 nM with 2-fold serial dilutions. 96-well plates were set up with 20 μL compound dilution, 20 μL reverse transcriptase, and 20 μL template/nucleotides and incubated at 37° C. 5% CO2 for 1 hr in a reaction plate. 50 μL of each reaction was then transferred to a streptavidin conjugated 96-well plate and an ELISA assay was run based on manufacture's protocol. All compounds were tested in sextuplicate, with single wells of efavirenz dilutions on each plate.

CYP2D6 = CYP2D6 (Homo sapiens, UniProt P10635); test: Human CYP inhibition in human liver microsomes; type: in vitro ADME
Protocol: (§1) Study samples (containing either control inhibitor or test compound) were added into the tubes, vortexed gently and pre-incubated for 5 min at 37° C. 20 μL of NADPH solution was aliquoted into all tubes, then vortexed to start the reaction and to assure adequate mixture of the NADPH. After mixing, the tubes were incubated for 20 min at 37° C. in a shaking water bath and then quenched in […] formic acid/acetonitrile solution. After quenching, the samples were vortexed vigorously for 1 min and centrifuged at 4,000 rpm for 15 min (4° C.). 100 μL of supernatant was transferred to 0.65 ml tubes for LCMS analysis by the bioanalytical method described earlier. The CYP450 substrates and control inhibitors for each enzyme was as follows: CYP1A2 (phenacetin, naphthoflavone), CYP2C9 (diclofenac, sulfaphenazole), CYP2C19 (omeprazole, tranylcypromine), CYP2D6 (dextromethorphan, quinidine), CYP3A4 (midazolam, ketoconazole).

CYP3A4 = CYP3A4 (Homo sapiens, UniProt P08684); test: Human CYP inhibition in human liver microsomes; type: in vitro ADME
Protocol: as §1

[2] = Toxicity assay in TZM-bl cells; type: cell-based; conditions: human
Procedure, shortened: (§2)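 TZM-bl cells (2×10^5/mL, with DEAE-dextran) were exposed to serially diluted compound plus virus at a constant 0.005% or 0.05% DMSO for 48 h at 37 °C. CellTiter-Blue was added at 46 h and incubated 2 h. Viability was read as fluorescence at 560/590 nm after stopping with 1.5% SDS.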

TZM-bl cells = test: Toxicity assay in TZM-bl cells; type: cell-based
Procedure, shortened: as §2

CYP3A4, sequence (P08684 whole entry): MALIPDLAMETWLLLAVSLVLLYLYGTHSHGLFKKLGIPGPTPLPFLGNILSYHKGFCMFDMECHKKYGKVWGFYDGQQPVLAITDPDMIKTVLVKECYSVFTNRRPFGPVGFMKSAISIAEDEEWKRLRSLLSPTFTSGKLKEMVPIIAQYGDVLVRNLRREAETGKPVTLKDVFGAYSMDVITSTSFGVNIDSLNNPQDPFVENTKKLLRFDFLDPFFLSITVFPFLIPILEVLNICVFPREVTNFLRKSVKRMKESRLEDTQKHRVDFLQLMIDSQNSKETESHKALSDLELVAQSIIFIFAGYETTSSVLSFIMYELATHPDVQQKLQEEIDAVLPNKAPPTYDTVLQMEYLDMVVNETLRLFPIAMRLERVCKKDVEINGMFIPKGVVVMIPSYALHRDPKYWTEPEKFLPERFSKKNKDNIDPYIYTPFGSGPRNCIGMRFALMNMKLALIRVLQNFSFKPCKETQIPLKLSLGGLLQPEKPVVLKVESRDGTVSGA
CYP2D6, sequence (P10635 whole entry): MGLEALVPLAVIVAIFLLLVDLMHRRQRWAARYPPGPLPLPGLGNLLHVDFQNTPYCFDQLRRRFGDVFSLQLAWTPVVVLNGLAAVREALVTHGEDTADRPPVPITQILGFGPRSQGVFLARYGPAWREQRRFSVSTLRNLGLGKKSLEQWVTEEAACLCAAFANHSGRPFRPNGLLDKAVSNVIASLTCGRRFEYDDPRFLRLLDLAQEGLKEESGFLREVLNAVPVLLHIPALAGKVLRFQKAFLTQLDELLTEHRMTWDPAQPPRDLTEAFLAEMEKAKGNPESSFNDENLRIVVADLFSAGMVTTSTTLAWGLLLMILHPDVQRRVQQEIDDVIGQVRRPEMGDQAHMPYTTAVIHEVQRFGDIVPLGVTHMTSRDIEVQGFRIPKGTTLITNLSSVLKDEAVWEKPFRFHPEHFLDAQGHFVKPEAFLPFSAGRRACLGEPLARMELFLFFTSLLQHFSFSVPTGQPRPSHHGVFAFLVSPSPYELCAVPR

Row | Structure (SMILES) | Human plasma protein binding (in vitro; 5 μM, dialysis 5 hours) | solubility at 4 h (Kinetic solubility) | pEC50 [1] | pIC50 (CYP2D6) | pIC50 (CYP3A4) | CC50 at 48 h [2] | Qualitative Cell Toxicity within inhibition range (TZM-bl cells) | half-life at 5 μM (in vitro; human, plasma) | fraction unbound (in vitro; human, plasma, pH 7.4, 5 μM, dialysis 5 hours, read-out: Human plasma protein binding) | solubility at 4 h (Kinetic solubility; 20 °C, kinetic from dmso stock) | pIC50 [1] | disparity between the IC50s for in-cell (TZM-bl) and reverse transcriptase HIV I inhibition [1] | pIC50 (CYP2D6; human liver microsomes, substrate dextromethorphan, read-out: CYP inhibition IC50, 2D6) | pIC50 (CYP3A4; human liver microsomes, substrate midazolam, read-out: CYP inhibition IC50, 3A4) | CC50 at 48 h ([2]; Table 4, TZM-bl, read-out: CC50 (TZM)) | CC50 at 48 h ([2]; text b494, FIG. 2F, read-out: cytotoxicity CC50) | Qualitative Cell Toxicity within inhibition range (TZM-bl cells; Table 3, TZM-bl) | Quantitative Cell Toxicity (TZM-bl cells; Table 3, TZM-bl)
1 | Nc1nc(Nc2ccc(Cl)cc2)nn1S(=O)(=O)c1ccc2ccccc2c1 [Compound 1, N3-(4-chlorophenyl)-1-(2-naphthylsulfonyl)-1,2,4-triazole-3,5-diamine] | >99.9% | <0.2 µM | 5.32 | < 4.30 | < 4.30 | > 1 µM | None |  |  |  |  |  |  |  |  |  |  | 
2 | N#C/C=C/c1ccc2c(S(=O)(=O)n3nc(Nc4ccc(C#N)c(Cl)c4)nc3N)cccc2c1 [Compound 20, 4-[[5-amino-1-[[6-[2-cyanovinyl]-1-naphthyl]sulfonyl]-1,2,4-triazol-3-yl]amino]-2-chloro-benzonitrile] |  |  | 5.39 |  |  |  |  | > 6.21 h | < 0.001 | < 0.2 µM | 5.87 | 1000 fold | < 4.30 | 4.50 | 4.95 µM | 5.35 µM | None | 4.06 µM
